Assay results from ChEMBL document CHEMBL1201862, “PubChem BioAssay data set” (2004).
Activity calls are given as the source filed them.

What was measured:
Large T antigen = Large T antigen (Simian virus 40, UniProt P03070); type: functional, Betapolyomavirus macacae;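 further: Confirmatory-stage PubChem screen for compounds that inhibit SV40 T antigen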
[1] = HGIII-sPLA2 enzyme inhibition potency – biochemical, QFRET, IC50, dose response (AID 743457);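 further: green fluorescence rise as the enzyme cleaves BODIPY PC-A2 in liposomes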
fMet-Leu-Phe receptor = fMet-Leu-Phe receptor (Homo sapiens, UniProt P21462); assay: formyl peptide receptor binders – dose response (AID 519); type: functional
[2] = target: Mitogen-activated protein kinase 10 (Homo sapiens, UniProt P53779); assay: Dose response biochemical screening assay for inhibitors of c-Jun N-Terminal Kinase 3 (JNK3). [Related pubchem assays: 746 ]
Nonstructural protein 1 = Nonstructural protein 1 (Influenza A virus, UniProt Q194T2); type: functional, Influenza A virus (A/California/07/2009(H1N1))
[3] = target: Ras and Rab interactor 1/Tyrosine-protein kinase ABL1 (Homo sapiens, UniProt P00519+Q13671); type: functional;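 further: biochemical TR-FRET dose-response test measuring inhibition of binding between Rin1 and Abl proteins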
[4] = target: Glutathione-S-transferase (Schistosoma japonicum, UniProt Q26513); assay: GST-antibody interaction or FRET quenching – biochemical, TR-FRET, artefact control for Vif-APOBEC3G degradation inhibitor project, dose response (AID 1117362); type: functional
[5] = reduction of Shn3 3'UTR-driven luciferase in osteoblasts – cell-based, Clone20 osteoblasts, firefly luciferase, cherry-picked, dose response (AID 624132); type: functional;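 further: firefly luciferase luminescence from reporter carrying the Shn3 3'UTR in osteoblasts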
[6] = loss of viability in HepG2 cells – cell-based, CellTiter-Glo, cherry-picked, cytotoxicity control for Shn3 inhibitor project, dose response (AID 624134); type: functional
[7] = non-specific 3'UTR reporter inhibition in Clone20-Shn3RL – cell-based, Renilla luciferase, cherry-picked, counter-screen for Shn3 inhibitor project, dose response (AID 624133); type: functional
[8] = blockers of HIV-1 envelope-mediated cell-cell fusion – cherry-pick, dose response (AID 652057); type: functional, cell-based
[9] = blockers of HIV-1 ZM109 envelope-driven cell-cell fusion – HeLa effector, CEM target cells, luciferase, cherry-pick, dose response (AID 652058); type: functional, cell-based;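 further: luciferase signal from HIV-1 Env mediated cell-cell fusion of effector and target cells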
[10] = off-target signal loss in HeLa-CEM21 co-culture – HeLa F-luc CTL cells, cherry-picked, counter-screen for HIV-1 Env fusion inhibitor project, dose response (AID 652040); type: functional, cell-based;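 further: potency for signal decrease marking cytotoxic or nonspecific inhibition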
[11] = HIV-1 AD8 envelope cell-cell fusion blockers – cherry-pick, dose response (AID 652062); type: functional, cell-based;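 further: luciferase signal from cell-cell fusion driven by HIV-1 clade B AD8 Env; potency is for inhibitors of fusion seen as a drop in luminescence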
[12] = Shn3 3'UTR reporter signal decrease – cell-based, Clone20 osteoblasts, firefly luciferase, cherry-pick, set 2, Schnurri-3 inhibitor project, dose response (AID 720490); type: functional;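 further: actives lower the luminescence signal as inhibitors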
[13] = rise of 2N DNA cells, HeLa – IC50, dose response (AID 1117349); type: functional, cell-based
[14] = CellTiter-Glo luminescence survival assay, SW480 colon tumor line, concentration-response curve, half-maximal inhibitory concentration (AID 1117338); type: functional
[15] = RKO cell viability reduction, dose response, CellTiter-Glo luminescence (AID 1117322); type: functional
[16] = cytotoxicity toward HCT116 cells – cell-based, CellTiter-Glo luminescence, IC50, dose response (AID 1117332); type: functional; details: HCT-116
[17] = SNU-C1 cell viability reduction, dose response, CellTiter-Glo luminescence (AID 1117323); type: functional, cell-based
[18] = cytotoxicity toward Colo320 cells – cell-based, CellTiter-Glo luminescence, IC50, dose response (AID 1117334); type: functional; details: COLO 320
[19] = rise of 4N DNA cells, HeLa – IC50, dose response (AID 1117351); type: functional, cell-based
[20] = cytotoxicity toward HT-29 cells – cell-based, CellTiter-Glo luminescence, IC50, dose response (AID 1117330); type: functional
[21] = Reduced DLD-1 viability, concentration-response, CellTiter-Glo luminescence (AID 1117352); type: functional
[22] = HCT116 cell viability decrease, GSK3B pretreatment – CellTiter-Glo, IC50, dose response (AID 1117339); type: functional; details: HCT-116
cells = type: functional
Kallikrein-7 = Kallikrein-7 (Homo sapiens, UniProt P49862); assay: Fluorescence Intensity-based biochemical primary high throughput dose response assay to identify activators of kallikrein-7 (K7) zymogen.
[23] = Late stage assay provider results from the probe development effort to identify selective inhibitors of heat shock protein 90 (HSP90): Absorbance-based cell proliferation assay in SKBR3 cells.; type: functional; details: SK-BR-3
[24] = Late stage assay provider results from the probe development effort to identify selective inhibitors of heat shock protein 90 (HSP90): Absorbance-based cell proliferation assay in MCF7 cells.; type: functional

Chain of Nonstructural protein 1 (Q194T2 whole entry): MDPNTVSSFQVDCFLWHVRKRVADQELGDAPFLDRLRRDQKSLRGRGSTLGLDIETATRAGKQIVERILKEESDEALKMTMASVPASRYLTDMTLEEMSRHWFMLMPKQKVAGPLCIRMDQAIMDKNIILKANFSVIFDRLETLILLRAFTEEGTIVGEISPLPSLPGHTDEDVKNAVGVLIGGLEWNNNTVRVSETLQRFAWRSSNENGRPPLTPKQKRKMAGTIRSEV
Chain of Kallikrein-7 (P49862 whole entry): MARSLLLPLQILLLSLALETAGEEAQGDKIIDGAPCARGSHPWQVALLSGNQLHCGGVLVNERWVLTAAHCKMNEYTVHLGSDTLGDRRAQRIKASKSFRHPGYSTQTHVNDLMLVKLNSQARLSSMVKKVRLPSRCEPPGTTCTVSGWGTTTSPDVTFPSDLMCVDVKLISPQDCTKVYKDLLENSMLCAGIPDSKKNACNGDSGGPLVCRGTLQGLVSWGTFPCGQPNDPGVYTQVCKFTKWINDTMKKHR
Chain of Large T antigen (P03070 whole entry): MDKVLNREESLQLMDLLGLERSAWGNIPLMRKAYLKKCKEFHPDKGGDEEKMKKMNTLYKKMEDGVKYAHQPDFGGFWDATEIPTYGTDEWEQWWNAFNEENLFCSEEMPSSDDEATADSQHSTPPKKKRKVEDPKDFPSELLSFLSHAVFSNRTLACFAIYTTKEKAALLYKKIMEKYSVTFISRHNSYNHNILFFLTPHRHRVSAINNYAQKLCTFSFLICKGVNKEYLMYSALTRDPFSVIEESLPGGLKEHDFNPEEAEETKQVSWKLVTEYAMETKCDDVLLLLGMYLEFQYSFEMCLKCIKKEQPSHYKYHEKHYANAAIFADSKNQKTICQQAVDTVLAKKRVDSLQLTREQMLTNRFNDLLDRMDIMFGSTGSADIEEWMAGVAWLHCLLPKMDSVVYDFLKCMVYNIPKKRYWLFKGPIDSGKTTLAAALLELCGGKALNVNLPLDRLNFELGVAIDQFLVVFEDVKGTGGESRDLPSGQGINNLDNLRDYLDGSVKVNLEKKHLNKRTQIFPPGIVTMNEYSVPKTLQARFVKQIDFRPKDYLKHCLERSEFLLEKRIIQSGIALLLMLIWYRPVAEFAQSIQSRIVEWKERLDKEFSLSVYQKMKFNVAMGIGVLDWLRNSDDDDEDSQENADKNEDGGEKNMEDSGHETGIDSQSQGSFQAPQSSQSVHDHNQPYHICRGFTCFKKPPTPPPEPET
Chain of fMet-Leu-Phe receptor (P21462 whole entry): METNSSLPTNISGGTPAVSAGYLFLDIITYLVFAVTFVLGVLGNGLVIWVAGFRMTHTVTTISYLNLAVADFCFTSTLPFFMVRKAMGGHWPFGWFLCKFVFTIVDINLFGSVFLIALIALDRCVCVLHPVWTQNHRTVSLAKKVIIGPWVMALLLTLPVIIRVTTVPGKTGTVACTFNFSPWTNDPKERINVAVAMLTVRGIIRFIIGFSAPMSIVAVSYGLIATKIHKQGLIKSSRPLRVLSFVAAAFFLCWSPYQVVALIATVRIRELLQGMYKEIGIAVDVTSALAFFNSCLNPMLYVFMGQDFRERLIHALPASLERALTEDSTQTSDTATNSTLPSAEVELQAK
Chain of Glutathione-S-transferase (Q26513 whole entry): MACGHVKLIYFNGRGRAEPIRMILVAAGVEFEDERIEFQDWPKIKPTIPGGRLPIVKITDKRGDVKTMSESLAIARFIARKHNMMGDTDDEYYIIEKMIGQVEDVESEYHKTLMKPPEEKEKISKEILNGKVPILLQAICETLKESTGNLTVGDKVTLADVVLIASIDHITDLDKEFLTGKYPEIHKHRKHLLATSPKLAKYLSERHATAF
Chain of Ras and Rab interactor 1/Tyrosine-protein kinase ABL1 (P00519 whole entry): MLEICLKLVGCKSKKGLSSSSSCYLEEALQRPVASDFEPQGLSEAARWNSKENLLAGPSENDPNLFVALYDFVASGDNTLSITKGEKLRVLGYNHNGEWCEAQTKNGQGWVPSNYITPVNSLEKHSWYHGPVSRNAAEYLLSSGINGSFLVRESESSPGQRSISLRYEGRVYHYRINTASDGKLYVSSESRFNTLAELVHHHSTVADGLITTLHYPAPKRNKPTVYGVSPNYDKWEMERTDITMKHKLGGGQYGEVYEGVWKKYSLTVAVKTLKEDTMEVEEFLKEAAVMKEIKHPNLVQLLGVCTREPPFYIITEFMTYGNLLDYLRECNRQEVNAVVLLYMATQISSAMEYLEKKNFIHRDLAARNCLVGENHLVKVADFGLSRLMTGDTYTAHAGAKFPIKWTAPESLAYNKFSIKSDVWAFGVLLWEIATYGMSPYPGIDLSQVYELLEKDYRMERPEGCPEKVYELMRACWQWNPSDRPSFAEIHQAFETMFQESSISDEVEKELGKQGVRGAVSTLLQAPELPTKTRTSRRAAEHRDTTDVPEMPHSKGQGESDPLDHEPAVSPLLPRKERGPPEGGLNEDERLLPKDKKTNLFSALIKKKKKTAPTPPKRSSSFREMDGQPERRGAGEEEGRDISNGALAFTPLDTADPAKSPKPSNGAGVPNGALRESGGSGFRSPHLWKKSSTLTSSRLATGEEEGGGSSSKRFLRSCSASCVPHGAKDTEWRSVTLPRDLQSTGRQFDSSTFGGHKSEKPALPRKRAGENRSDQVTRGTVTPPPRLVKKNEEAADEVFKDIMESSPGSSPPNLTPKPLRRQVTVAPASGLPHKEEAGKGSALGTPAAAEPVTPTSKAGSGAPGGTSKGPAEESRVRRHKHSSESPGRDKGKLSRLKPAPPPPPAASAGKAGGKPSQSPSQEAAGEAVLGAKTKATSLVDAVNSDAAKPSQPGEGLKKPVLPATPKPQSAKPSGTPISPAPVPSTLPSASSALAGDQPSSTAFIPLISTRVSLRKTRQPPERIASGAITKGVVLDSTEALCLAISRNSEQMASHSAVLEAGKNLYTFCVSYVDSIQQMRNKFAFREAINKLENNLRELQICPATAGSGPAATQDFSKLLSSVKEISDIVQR
Chain of Ras and Rab interactor 1/Tyrosine-protein kinase ABL1 (Q13671 whole entry): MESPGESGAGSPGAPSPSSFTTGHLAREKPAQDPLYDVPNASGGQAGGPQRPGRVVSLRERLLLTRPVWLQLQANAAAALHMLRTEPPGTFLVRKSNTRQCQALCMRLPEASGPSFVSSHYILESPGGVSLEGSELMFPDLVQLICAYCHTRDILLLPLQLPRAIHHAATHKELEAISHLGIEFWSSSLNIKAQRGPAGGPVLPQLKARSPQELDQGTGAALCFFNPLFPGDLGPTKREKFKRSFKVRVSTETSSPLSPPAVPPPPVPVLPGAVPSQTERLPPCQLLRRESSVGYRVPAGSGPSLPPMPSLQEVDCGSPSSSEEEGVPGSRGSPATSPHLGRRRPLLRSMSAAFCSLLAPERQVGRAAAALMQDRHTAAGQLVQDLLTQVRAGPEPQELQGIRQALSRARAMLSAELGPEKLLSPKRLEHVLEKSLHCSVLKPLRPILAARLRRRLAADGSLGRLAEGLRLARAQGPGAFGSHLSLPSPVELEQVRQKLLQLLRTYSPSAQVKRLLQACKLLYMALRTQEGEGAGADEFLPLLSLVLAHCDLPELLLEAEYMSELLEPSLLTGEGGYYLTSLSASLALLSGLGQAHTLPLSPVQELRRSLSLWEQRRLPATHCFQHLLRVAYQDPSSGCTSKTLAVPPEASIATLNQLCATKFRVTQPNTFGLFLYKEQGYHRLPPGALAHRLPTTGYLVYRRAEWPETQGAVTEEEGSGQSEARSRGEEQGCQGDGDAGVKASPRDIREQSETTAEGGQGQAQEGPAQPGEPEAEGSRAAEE
Chain of Mitogen-activated protein kinase 10 (P53779 whole entry): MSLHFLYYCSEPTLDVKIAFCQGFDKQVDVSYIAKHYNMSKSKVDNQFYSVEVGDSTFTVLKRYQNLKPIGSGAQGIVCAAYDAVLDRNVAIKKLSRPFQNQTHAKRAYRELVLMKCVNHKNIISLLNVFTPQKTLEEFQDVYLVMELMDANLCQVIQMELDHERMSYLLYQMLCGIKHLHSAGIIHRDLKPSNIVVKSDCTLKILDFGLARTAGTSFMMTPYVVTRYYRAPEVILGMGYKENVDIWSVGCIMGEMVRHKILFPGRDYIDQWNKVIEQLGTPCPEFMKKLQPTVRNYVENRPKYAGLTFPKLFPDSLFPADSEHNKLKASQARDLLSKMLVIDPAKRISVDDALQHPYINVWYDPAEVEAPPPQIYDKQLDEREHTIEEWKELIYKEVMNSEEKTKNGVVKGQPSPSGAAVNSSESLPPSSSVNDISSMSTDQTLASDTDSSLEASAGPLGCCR

Structure (SMILES): CNc1nn(-c2cccc(Cl)c2)nc1N
- IC50 (Large T antigen): 29.9 µM (active)
- IC50 [1]: > 122 µM (inactive)
- Ki (fMet-Leu-Phe receptor): > 66.7 µM (inactive)

Structure (SMILES): CCOc1cccc(NC(=O)C2CCCN(S(=O)(=O)c3ccc(-n4cnnn4)cc3)C2)c1 (centres undefined)
- IC50 [2]: > 93.1 µM (not active)

Structure (SMILES): Cc1c(F)cccc1NC(=O)CCCCCC1NC(=O)NC1C (centres undefined)
- IC50 (Nonstructural protein 1): 1.18 µM (active)
- IC50 [3]: 14.3 nM (active)
- IC50 [4]: 29.8 µM (active)

Structure (SMILES): CCOc1ccc(N(C)S(=O)(=O)c2cc(-c3cc(C)no3)ccc2C(C)C)cc1
- AC50 [5]: 4.13 µM (active)
- AC50 [6]: 58.4 µM (active)
- AC50 [7]: 16.7 µM (active)
- AC50 [8]: 1.32 µM (active)
- AC50 [9]: 3 µM (active)
- AC50 [10]: 1.27 µM (active)
- AC50 [11]: 7.87 µM (active)
- AC50 [12]: 5.22 µM (active)

Structure (SMILES): Cc1ccc2nc(N)[nH]c(=O)c2c1Sc1ccncc1
- IC50 [13]: > 10 µM (inactive)
- IC50 [14]: 2.24 µM (active)
- IC50 [15]: 343 nM (active)
- IC50 [16]: 3.5 µM (active)
- IC50 [17]: > 20 µM (inactive)
- IC50 [18]: > 20 µM (inactive)
- IC50 [19]: > 10 µM (inactive)
- IC50 [20]: 4.75 µM (active)
- IC50 [21]: > 20 µM (inactive)
- IC50 [22]: 830 nM (active)

Structure (SMILES): CCOC(=O)COc1ccc2c(c1)C(=O)CC1(CCCCC1)O2
- IC50 (cells): 1.18 µM (active)
- EC50 (Kallikrein-7): > 69.5 µM (inactive)

Structure (SMILES): COc1c(C)c2c(c(O)c1C/C=C(\C)CCC(=O)OCCN1CCOCC1)C(=O)OC2 [MYCOPHENOLATE MOFETIL]
- IC50 [13]: > 10 µM (inactive)
- IC50 [14]: 2.6 µM (active)
- IC50 [15]: 165 nM (active)
- IC50 [16]: 0.0672 µM (active)
- IC50 [17]: > 20 µM (inactive)
- IC50 [18]: 0.001 µM (active)
- IC50 [19]: > 10 µM (inactive)
- IC50 [20]: > 20 µM (inactive)
- IC50 [21]: > 20 µM (inactive)
- IC50 [22]: 49.8 nM (active)

Structure (SMILES): N#Cc1cc2ccc(OCc3cccc(C(=O)O)c3)cc2oc1=O
- IC50 [23]: > 100 µM (inactive)
- IC50 [24]: > 100 µM (inactive)
